Each compound was assayed against alanyl aminopeptidases (APN) (Homo sapiens, UniProt P15144) (assay: Inhibition of alanyl aminopeptidase enzymatic activity, fluorogenic substrate (Ala)2-rhodamine 110). Conditions: Table 3, starred values = ID50; read-out: ID50 APN (values marked with *).
Format: biochemical
Experimental: The inhibition characteristics measured are referred to as IC-50 values or ID50 values (the latter marked with “*”) for said enzyme. The enzymatic activity was determined by means of the fluorogenic substrate/product (Ala)2-rhodamine 110.

Chain of alanyl aminopeptidases (APN) (P15144 whole entry, species assumed): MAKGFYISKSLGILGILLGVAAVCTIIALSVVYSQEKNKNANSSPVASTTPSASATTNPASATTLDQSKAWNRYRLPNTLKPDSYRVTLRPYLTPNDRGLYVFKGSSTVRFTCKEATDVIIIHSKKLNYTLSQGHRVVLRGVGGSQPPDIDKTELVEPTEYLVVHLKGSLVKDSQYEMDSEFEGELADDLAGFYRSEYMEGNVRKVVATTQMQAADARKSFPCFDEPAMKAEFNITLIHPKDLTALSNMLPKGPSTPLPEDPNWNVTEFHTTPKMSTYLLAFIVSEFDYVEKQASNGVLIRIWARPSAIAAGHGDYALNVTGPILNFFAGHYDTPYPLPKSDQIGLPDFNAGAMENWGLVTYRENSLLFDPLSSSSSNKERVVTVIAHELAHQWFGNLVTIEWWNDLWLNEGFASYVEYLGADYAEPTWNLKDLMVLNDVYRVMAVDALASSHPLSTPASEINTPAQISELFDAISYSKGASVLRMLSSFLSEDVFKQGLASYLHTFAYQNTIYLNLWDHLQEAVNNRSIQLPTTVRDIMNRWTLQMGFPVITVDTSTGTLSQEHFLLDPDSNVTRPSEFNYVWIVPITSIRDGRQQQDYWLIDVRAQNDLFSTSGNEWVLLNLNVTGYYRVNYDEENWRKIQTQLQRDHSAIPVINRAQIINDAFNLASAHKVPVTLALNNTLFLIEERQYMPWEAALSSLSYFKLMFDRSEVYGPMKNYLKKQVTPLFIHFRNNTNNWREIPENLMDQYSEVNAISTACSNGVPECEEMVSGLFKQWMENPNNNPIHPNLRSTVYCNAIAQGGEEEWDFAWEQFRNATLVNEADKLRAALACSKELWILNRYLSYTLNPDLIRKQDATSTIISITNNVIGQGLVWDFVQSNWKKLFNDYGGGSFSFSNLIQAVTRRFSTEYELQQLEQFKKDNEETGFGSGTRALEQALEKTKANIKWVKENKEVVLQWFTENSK

| IC50 [µM] | SMILES |
| --- | --- |
| 33.8 | Cc1cccc(C(=O)Nc2ccc(C(=O)N/N=C/c3ccc4c(c3)OCO4)cc2)c1 [A3.203] |

Same assay, conditions: Table 3, unstarred values; read-out: IC50APN

| SMILES | IC50 [µM] |
| --- | --- |
| CCCCCC(=O)N/N=C/c1ccco1 [A3.164] | 26.7 |
| CCCOc1ccc(/C=C(\NC(=O)c2ccccc2)C(=O)N/N=C/c2ccco2)cc1 [A3.165] | 27.3 |
| O=C(/C=C/c1ccco1)c1ccccc1 [A3.166] | 27.3 |
| Cc1nn(-c2ccccc2)c(C)c1-c1cc(C(=O)N/N=C/c2ccco2)[nH]n1 [A3.167] | 27.4 |
| CC(/C=N/NC(=O)c1ccco1)=C\c1ccco1 [A3.168] | 27.5 |
| CC1SC(N/N=C/c2ccco2)=NC1=O (stereo not shown) [A3.169] | 27.7 |
| Cc1ccc(Cn2c(SCCC(=O)O)nc3c2c(=O)n(C)c(=O)n3C)cc1 [A3.170] | 28 |
| O=C(Cc1cccs1)N/N=C/C=C\c1ccco1 [A3.171] | 28 |
| COC(=O)c1ccccc1-c1ccc(/C=C2\C(=O)N(C)C(=O)C(C#N)=C2C)o1 [A3.172] | 28.1 |
| CC(/C=C/c1ccco1)=N\NC(=O)CNc1ccc2ccccc2c1 [A3.173] | 28.5 |
| C/C(=N\N=C1\SC(CC(=O)O)C(=O)N1c1ccccc1)c1ccco1 (stereo not shown) [A3.174] | 28.6 |
| CC1=C(C#N)C(=O)N(CC(C)O)C(=O)/C1=C/c1ccc(-c2cccc(Cl)c2C)o1 (stereo not shown) [A3.175] | 28.6 |
| C(=C\c1ccco1)/c1nc2ccccc2[nH]1 [A3.176] | 28.7 |
| COc1ccccc1-n1c(CCC(=O)O)ccc1-c1cccs1 [A3.177] | 28.7 |
| Cc1ccc(C(=O)N/C(=C\c2ccco2)C(=O)N2CCOCC2)cc1C [A3.178] | 28.8 |
| O=C(C1c2ccccc2Oc2ccccc21)n1cc(Cl)cn1 [A3.179] | 29.1 |
| C=CCN1C(=O)C(C#N)=C(C)/C(=C\c2ccc(-c3cc(C)c(C)cc3[N+](=O)[O-])o2)C1=O [A3.180] | 29.3 |
| COc1ccc(/C(C)=N/NC(=O)CNC(=O)/C=C\c2ccco2)cc1 [A3.181] | 29.4 |
| O=C(N/N=C/c1ccco1)c1cccc(NC(=O)c2ccccc2)c1 [A3.182] | 29.5 |
| CC(=O)Nc1ccc(C(=O)N/N=C/c2ccc(C)o2)cc1 [A3.183] | 29.7 |
| Cc1ccc(/C=N/NC(=O)c2cccc(I)c2)o1 [A3.184] | 30 |

| SMILES | IC50 [µM] |
| --- | --- |
| O=C(N/N=C\c1ccco1)c1cnccn1 [A3.185] | 30.1 |
| O=C(N/N=C/C=C\c1ccco1)c1ccoc1 [A3.186] | 30.1 |
| CC1=C(C#N)C(=O)N=C(O)/C1=C\c1ccc(-c2ccc(Cl)cc2Cl)o1 [A3.187] | 30.3 |
| NC(=O)C1CCN(C(=O)/C(=C/c2ccco2)NC(=O)c2ccccc2)CC1 [A3.188] | 30.5 |
| Cc1cccc(C)c1NC1C(c2ccccc2NC(=O)Nc2ccc(OC(F)(F)F)cc2)N=C2C(C(=O)NCC(C)C)=CC=CN21 (stereo not shown) [A3.190] | 31.1 |
| Cc1cc(C(=O)N/N=C/c2ccc(C)o2)[nH]n1 [A3.191] | 31.8 |
| O=C(CNC(=O)c1ccccc1Br)N/N=C/c1ccoc1 [A3.192] | 31.9 |
| CCCOC(=O)c1cc(-c2ccc(/C=C3/C(=O)N(CC(C)O)C(=O)C(C#N)=C3C)o2)ccc1Cl (stereo not shown) [A3.193] | 32 |
| Cc1ccc(C(=O)N/C(=C\c2ccco2)C(=O)N2CCCN(C)CC2)cc1C [A3.194] | 32.1 |
| Nc1nc2nc(-c3ccco3)cc(C(F)(F)F)n2n1 [A3.195] | 32.1 |
| O=C(CC(=O)N/N=C/c1ccco1)N/N=C/c1ccco1 [A3.196] | 32.4 |
| CC1=C(C#N)C(O)=NC(=O)/C1=C/c1ccc(-c2ccc(Cl)cc2Cl)o1 [A3.197] | 32.4 |
| Cc1ccc(C(=O)N/C(=C/c2ccco2)C(=O)N(C)C)cc1 [A3.198] | 32.5 |
| O=C(N/N=C/c1ccco1)c1ccc(NC(=O)c2ccccc2Cl)cc1 [A3.199] | 32.5 |
| CC(=O)N1CCOC1(C)c1ccc([N+](=O)[O-])cc1 (stereo not shown) [A3.200] | 32.8 |
| CCOc1ccc(-c2cc(C(=O)N/N=C/c3ccco3)[nH]n2)cc1OC [A3.201] | 33.4 |
| CCOC(=O)C1=C(N)NC2=C(CCCC2)C12C(=O)Nc1ccccc12 (stereo not shown) [A3.202] | 33.6 |
| Cc1ccccc1NC(=O)C1C(c2cccs2)C(C#N)=C(SCC(=O)Nc2ccc(Br)cc2)NC1(C)O (stereo not shown) [A3.204] | 33.9 |
| CC(C)C1N=C(Cc2cccnc2)N(CCCN2CCCC2=O)C1C(=O)NCc1ccccc1 (stereo not shown) [A3.205] | 34 |
| O=C(CCC(=O)Nc1cccc(Cl)c1)N/N=C/c1ccco1 [A3.206] | 34 |
| Cc1ccc(/C=N/NC(=O)c2ccc(F)cc2)o1 [A3.207] | 34.4 |

Now from value to compound:

| IC50 [µM] | SMILES |
| --- | --- |
| 34.5 | CCOC(=O)C1CCN(C(=O)/C(=C/c2ccco2)NC(=O)c2ccc(C)c(C)c2)CC1 [A3.209] |
| 34.7 | O=C(Nc1ccccc1C(=O)N/N=C/c1ccco1)c1ccccc1Cl [A3.210] |
| 34.7 | COc1ccccc1C(=O)N/N=C/c1ccc(C)o1 [A3.211] |
| 34.7 | O=C(N/N=C/c1ccco1)c1cccc(I)c1 [A3.212] |
| 34.7 | CSc1nnc2n(/N=C/c3ccco3)cnn12 [A3.213] |
| 35.5 | CC(=O)n1cc(/C=C/C=N/NC(=O)CC#N)c2ccccc21 [A3.214] |
| 35.7 | COc1ccc(C2NCCS2)cc1Br (stereo not shown) [A3.215] |
| 36.1 | COc1cc(-c2cc(C(=O)N/N=C/c3ccco3)[nH]n2)ccc1OC(C)C [A3.216a] |
| 36.2 | Cc1cccc(C(=O)Nc2cccc(C(=O)N/N=C/c3ccc(C)o3)c2)c1 [A3.216b] |
| 36.3 | COc1cc(Br)ccc1OCC(=O)N/N=C(C)/C=C/c1ccco1 [A3.217] |
| 36.3 | Cc1ccc(OCC(=O)N/N=C/c2ccco2)cc1C [A3.218] |
| 36.3 | CC(/C=N/NC(=O)C(O)c1ccccc1)=C\c1ccco1 (stereo not shown) [A3.219] |
| 36.6 | Cc1c(Cl)cccc1NC(=O)CCC(=O)N/N=C/c1ccco1 [A3.220] |
| 36.8 | CCCOC(=O)c1cc(-c2ccc(/C=C3\C(=O)NC(=O)C(C#N)=C3C)o2)ccc1Cl [A3.221] |
| 36.6 | O=[N+]([O-])c1ncn(CN2CCOCC2)n1 [A3.222] |
| 36.9 | O=C1C(Cc2ccc3[nH]ccc3c2)NC(=S)N1c1ccccc1 (stereo not shown) [A3.223] |
| 37.2 | CC1CCN(S(=O)(=O)c2ccc3c(c2)C(Cl)(Cl)C(=O)N3)CC1 [A3.224] |
| 37.4 | O=C(Nc1ccc(F)cc1)c1ccc([NH+]([O-])O)o1 (stereo not shown) [A3.226] |
| 37.7 | O=C(N/N=C/c1ccco1)c1ccccc1 [A3.227] |
| 38.2 | COc1ccc2ccccc2c1-c1cc(C(=O)N/N=C(\C)c2ccco2)[nH]n1 [A3.228] |
| 38.3 | O=C(N/N=C/c1ccco1)c1ccc(O)cc1O [A3.229] |
| 38.4 | CC(=O)Nc1ccc(C(=O)N/N=C/c2ccco2)cc1 [A3.230] |
| 39.3 | O=C(OCC1CCCO1)c1cc([N+](=O)[O-])cc([N+](=O)[O-])c1 (stereo not shown) [A3.231] |
| 40.3 | O=C(N/N=C/c1ccco1)c1ccn[nH]1 [A3.232] |
| 41 | CCOC(=O)c1cc(-c2ccc(/C=C3\C(=O)N(CCCO)C(=O)C(C#N)=C3C)o2)ccc1Cl [A3.233] |
| 41.1 | O=C(CCC(=O)Nc1ccccc1)N/N=C/c1ccco1 [A3.234] |
| 41.1 | O=[N+]([O-])c1ncn(CCBr)n1 [A3.235] |
| 41.2 | COc1ccc(C(=O)/C=C/c2ccc(-c3ccccc3)o2)cc1 [A3.236] |
| 43.2 | COc1ccc(OC)c(-c2cc(C(=O)N/N=C/c3ccco3)[nH]n2)c1 [A3.237] |
| 43.3 | O=C(Cn1cnc2ccccc21)N/N=C/c1ccco1 [A3.238] |
